Experimental data from PubChem BioAssay AID328 (DTP/NCI, 2004).
“And” between values parts separate entries of the source, which are not always exact repeats. Equal entries are not always repeated. Inconclusive results and toxic doses are left out. The calls were made as follows: active = survival T/C of 150% or more; inactive = T/C below 125% in these data.

Test system: BDF1 mice, P388 leukemia ip, median survival T/C
Experiment: NCI In Vivo Anticancer Drug Screen. Data for tumor model P388 Leukemia (intraperitoneal) in B6D2F1 (BDF1) mice
Settings: endpoint: median survival time, higher = longer survival
Outline: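 Mice carrying the transplantable tumour receive compound or vehicle. Survival is followed in each arm, and the treated measure is divided by the vehicle measure.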

[1] = dose: 100.0 mg/kg/injection, schedule: Q01DX009 (ip), vehicle: saline with Tween-80
[2] = dose: 200.0 mg/kg/injection, schedule: Q01DX009 (ip), vehicle: saline with Tween-80
[3] = dose: 400.0 mg/kg/injection, schedule: Q01DX009 (ip), vehicle: saline with Tween-80
[4] = dose: 100.0 mg/kg/injection, schedule: Q04DX003 (ip), vehicle: saline with Tween-80
[5] = dose: 200.0 mg/kg/injection, schedule: Q04DX003 (ip), vehicle: saline with Tween-80
[6] = dose: 400.0 mg/kg/injection, schedule: Q04DX003 (ip), vehicle: saline with Tween-80
[7] = dose: 100.0 mg/kg/injection, schedule: Q01DX009 (ip), vehicle: Klucel (hydroxypropylcellulose) (HPC)
[8] = dose: 100.0 mg/kg/injection, schedule: Q04DX003 (ip), vehicle: Klucel (hydroxypropylcellulose) (HPC)
[9] = dose: 200.0 mg/kg/injection, schedule: Q01DX009 (ip), vehicle: Klucel (hydroxypropylcellulose) (HPC)
[10] = dose: 200.0 mg/kg/injection, schedule: Q04DX003 (ip), vehicle: Klucel (hydroxypropylcellulose) (HPC)
[11] = dose: 400.0 mg/kg/injection, schedule: Q04DX003 (ip), vehicle: Klucel (hydroxypropylcellulose) (HPC)
[12] = dose: 50.0 mg/kg/injection, schedule: Q04DX003 (ip), vehicle: saline with Tween-80
[13] = dose: 50.0 mg/kg/injection, schedule: Q04DX003 (ip), vehicle: saline
[14] = dose: 100.0 mg/kg/injection, schedule: Q04DX003 (ip), vehicle: saline
[15] = dose: 200.0 mg/kg/injection, schedule: Q04DX003 (ip), vehicle: saline
[16] = dose: 100.0 mg/kg/injection, schedule: Q01DX009 (ip), vehicle: saline
[17] = dose: 200.0 mg/kg/injection, schedule: Q01DX009 (ip), vehicle: saline
[18] = dose: 400.0 mg/kg/injection, schedule: Q01DX009 (ip), vehicle: saline
[19] = dose: 400.0 mg/kg/injection, schedule: Q04DX003 (ip), vehicle: saline
[20] = dose: 50.0 mg/kg/injection, schedule: Q01DX009 (ip), vehicle: saline with Tween-80
[21] = dose: 50.0 mg/kg/injection, schedule: Q01DX009 (ip), vehicle: Klucel (hydroxypropylcellulose) (HPC)

Measured: T/C

CCOC(=O)NC1CC2(C=CN1C(=O)OCC)CCCCC2 (stereo not given)
inactive: dose: 37.5 mg/kg/injection, schedule: Q04DX003 (ip), vehicle: Klucel (hydroxypropylcellulose) (HPC) 113 % of control | dose: 75.0 mg/kg/injection, schedule: Q04DX003 (ip), vehicle: Klucel (hydroxypropylcellulose) (HPC) 118 % of control | dose: 150.0 mg/kg/injection, schedule: Q04DX003 (ip), vehicle: Klucel (hydroxypropylcellulose) (HPC) 112 % of control

c1ccc(P(CCP(CCP(c2ccccc2)c2ccccc2)c2ccccc2)CCP(c2ccccc2)c2ccccc2)cc1 (stereo not given)
inactive: [1] 90 % of control and 100 % of control | [2] 110 % of control and 100 % of control | [3] 100 % of control and 120 % of control

Nc1nc(SCc2ccccc2)c2ncn(C3CCCC3)c2n1
inactive: [4] 100 % of control | [5] 100 % of control | [6] 100 % of control

CCSc1nc(=S)cc(C)[nH]1
inactive: [7] 105 % of control | [8] 95 % of control | [9] 100 % of control | [10] 95 % of control | dose: 400.0 mg/kg/injection, schedule: Q01DX009 (ip), vehicle: Klucel (hydroxypropylcellulose) (HPC) 105 % of control | [11] 104 % of control

CCN(C(C)C)C(C)C
inactive: dose: 25.0 mg/kg/injection, schedule: Q04DX003 (ip), vehicle: saline with Tween-80 100 % of control | [12] 100 % of control | [4] 100 % of control

O=C(Cn1ccc(O)cc1=O)N1CCOCC1
inactive: dose: 100.0 mg/kg/injection, schedule: Q01DX009 (ip), vehicle: water 105 % of control | dose: 200.0 mg/kg/injection, schedule: Q01DX009 (ip), vehicle: water 104 % of control | dose: 400.0 mg/kg/injection, schedule: Q01DX009 (ip), vehicle: water 104 % of control

COc1ccc(C2=NNc3n[nH]c(=S)n3N2)cc1OC
inactive: [4] 100 % of control | [5] 100 % of control | [6] 91 % of control

CCCCN1CCNCC1
inactive: [13] 95 % of control | [14] 100 % of control | [15] 100 % of control

COc1cc2cc(-c3cc(OC)c(OC)c(OC)c3)c3c(c2cc1OC)CNC3=O
inactive: [16] 110 % of control | [14] 101 % of control | [17] 112 % of control | [15] 108 % of control | [18] 91 % of control | [19] 100 % of control

Cc1nnc2n1N=C(c1ccc(O)c(O)c1O)CS2
inactive: [20] 94 % of control | [1] 93 % of control | [2] 107 % of control

O=c1cc(Cl)[nH]c(=O)[nH]1
inactive: [12] 97 % of control | [4] 114 % of control | [5] 97 % of control | [6] 97 % of control

O=c1[nH]nc(-c2ccccc2)nc1/C(=N\Nc1ccc([N+](=O)[O-])cc1)c1ccccc1
inactive: [20] 89 % of control | [1] 89 % of control | [2] 98 % of control

C/C(=C\c1ccccc1)[N+](=O)[O-]
inactive: dose: 4.0 mg/kg/injection, schedule: Q01DX009 (ip), vehicle: Klucel (hydroxypropylcellulose) (HPC) 101 % of control | dose: 6.2 mg/kg/injection, schedule: Q01DX009 (ip), vehicle: saline 90 % of control | dose: 6.25 mg/kg/injection, schedule: Q01DX009 (ip), vehicle: saline 100 % of control | dose: 8.0 mg/kg/injection, schedule: Q01DX009 (ip), vehicle: Klucel (hydroxypropylcellulose) (HPC) 108 % of control | dose: 12.5 mg/kg/injection, schedule: Q01DX009 (ip), vehicle: saline 90 % of control and 105 % of control | dose: 25.0 mg/kg/injection, schedule: Q01DX009 (ip), vehicle: Klucel (hydroxypropylcellulose) (HPC) 100 % of control | dose: 25.0 mg/kg/injection, schedule: Q01DX009 (ip), vehicle: saline 90 % of control and 108 % of control and 119 % of control | dose: 25.0 mg/kg/injection, schedule: Q04DX003 (ip), vehicle: Klucel (hydroxypropylcellulose) (HPC) 113 % of control | dose: 30.0 mg/kg/injection, schedule: Q01DX009 (ip), vehicle: Klucel (hydroxypropylcellulose) (HPC) 118 % of control | dose: 44.0 mg/kg/injection, schedule: Q01DX009 (ip), vehicle: Klucel (hydroxypropylcellulose) (HPC) 109 % of control | [21] 87 % of control | dose: 50.0 mg/kg/injection, schedule: Q01DX009 (ip), vehicle: saline 115 % of control and 123 % of control | dose: 50.0 mg/kg/injection, schedule: Q04DX003 (ip), vehicle: Klucel (hydroxypropylcellulose) (HPC) 113 % of control | [13] 100 % of control | dose: 67.0 mg/kg/injection, schedule: Q01DX009 (ip), vehicle: Klucel (hydroxypropylcellulose) (HPC) 95 % of control | [14] 109 % of control | [15] 100 % of control | [19] 109 % of control

COC(=O)C(Sc1ccc(Cl)cc1)C1SC(=S)N(C)C1=O (stereo not given)
inactive: [1] 118 % of control | [2] 92 % of control

CC(N)C(=O)O (stereo not given)
inactive: [16] 91 % of control | [14] 88 % of control | [17] 108 % of control | [15] 100 % of control | [18] 100 % of control

CCOC(=O)C(Cc1ccc(C)cc1)(NC(C)=O)C(=O)OCC
inactive: [1] 92 % of control | [2] 99 % of control | [3] 101 % of control

CC1N2C3(c4ccccc4)OC(c4ccccc4)(c4ccccc43)C12c1ccccc1 (stereo not given)
inactive: [21] 104 % of control | [7] 100 % of control | [9] 89 % of control

NC(=O)C1CCCC12NC(=O)NC2=O (stereo not given)
inactive: [8] 109 % of control | [10] 100 % of control | [11] 95 % of control

CCC[CH2][Sn]([I])([CH2]I)[CH2]CCC
inactive: dose: 1.56 mg/kg/injection, schedule: Q01DX009 (ip), vehicle: saline with Tween-80 102 % of control | dose: 3.12 mg/kg/injection, schedule: Q01DX009 (ip), vehicle: saline with Tween-80 106 % of control | dose: 6.25 mg/kg/injection, schedule: Q01DX009 (ip), vehicle: saline with Tween-80 123 % of control

Cc1ccc(C)c(NC(=O)c2ccc(Cl)cc2Cl)c1
inactive: dose: 75.0 mg/kg/injection, schedule: Q01DX001 (ip), vehicle: other 90 % of control | dose: 150.0 mg/kg/injection, schedule: Q01DX001 (ip), vehicle: other 90 % of control

O=C(O)c1ccc([N+](=O)[O-])s1
inactive: [20] 90 % of control | [1] 95 % of control | [4] 110 % of control | [5] 100 % of control

CC(C)(COC(=O)c1cc(Br)ccc1Br)NC(=O)c1cc(Br)ccc1Br
inactive: [20] 91 % of control | [1] 97 % of control | [2] 97 % of control

CCCCCCCC(=O)[O][Hg][CH2]C1COC([CH2][Hg][O]C(=O)CCCCCCC)CO1 (stereo not given)
inactive: dose: 12.5 mg/kg/injection, schedule: Q01DX009 (ip), vehicle: saline sonified 110 % of control | dose: 50.0 mg/kg/injection, schedule: Q04DX003 (ip), vehicle: saline sonified 116 % of control

NC(=O)c1cc(Cl)nc2nc(Cl)nc(N)c12
inactive: [12] 105 % of control | [4] 104 % of control and 109 % of control | [5] 116 % of control and 117 % of control | [6] 116 % of control and 122 % of control
